According to article PMC7153038, “Pharmacologic inhibition of RGD‐binding integrins ameliorates fibrosis and improves function following kidney injury” (Physiological Reports, 2020):
Values joined by “and” are separate entries in the source; they are usually repeats but may differ in a detail not shown here. Equal values may be shown once.

Test system: kidney gene expression
Test: aristolochic acid kidney injury model, kidney RNA sequencing
Type: in vivo, mouse
Conditions: for Fold change of Pdgfra by RNA‐seq, AA + CWHM-12: vehicle 5.02; for Fold change of Pdgfrb by RNA‐seq, AA + CWHM-12: vehicle 6.79; for Fold change of Foxd1 by RNA‐seq, AA + CWHM-12: vehicle 9.55; for Fold change of Gli1 by RNA‐seq, AA + CWHM-12: vehicle 20.44; for Fold change of Crlf1 by RNA‐seq, AA + CWHM-12: vehicle 37.57
Experimental: Alzet osmotic minipumps (Cupertino, CA) were implanted subcutaneously in 8‐ to 10‐week‐old wild‐type male ICR outbred mice (Envigo) one day prior to induction of kidney injury to deliver vehicle (DMSO/H2O 1:1) or CWHM‐12 at a dose of 100 mg/kg per day. A single 5 mg/kg dose of aristolochic acid I sodium salt (Sigma‐Aldrich, A9451) in PBS was administered intraperitoneally to induce kidney injury, and mice were monitored daily for 27 days thereafter. Control (uninjured) mice were injected with an equal volume of PBS. Blood was obtained by maxillary vein puncture on days 0, 5 (peak injury), and 28 (study endpoint). For testing CWHM‐680, oral gavage (100 mg/kg per day) was started one day prior to injection of aristolochic acid I sodium salt and continued once daily until the study endpoint. Blood was obtained at days 0, 7, and 23 (study endpoint). […] Serum creatinine was measured by liquid chromatography–mass spectrometry (LC–MS/MS) at the University of Alabama O’Brien Center Bioanalytical Core. CWHM‐12 and CWHM‐680 concentrations were measured in plasma samples by liquid chromatography–tandem mass spectrometry (LC/MS/MS) using compound spiked into control plasma as a standard. All experiments were performed under protocols approved by the Institutional Animal Care and Use Committee at St. Louis University.
Total RNA was isolated from four kidneys from each of the three study groups using the RNeasy Plus Mini Kit (Qiagen). The groups were as follows: (a) aristolochic acid plus vehicle, (b) aristolochic acid plus CWHM‐12, and (c) PBS plus vehicle. After ribosomal depletion, we constructed barcoded sequencing libraries using the Ion Total RNA‐seq v2 kits (Life Technologies) according to the manufacturer's instructions. Sequencing was performed on an Ion Torrent Proton with mean read lengths of 85–110 nucleotides, and reads were aligned to the mouse mm10 genome using the TMAP aligner map4 algorithm. Soft clipping at both 5′ and 3′ ends of the reads was permitted during alignment to accommodate spliced reads, with a minimum seed length of 20 nucleotides. Genome‐wide strand‐specific nucleotide coverages were calculated from the aligned bam files for each sample using the “genomecoveragebed” program in BEDTools (Quinlan & Hall, 2010), and the nucleotide coverage for all nonredundant exons for each gene was summed using custom R scripts (http://www.Rproject.org). Normalization factors were calculated by averaging the total exon coverage for all replicates and dividing this average by the total exon coverage for each individual sample. The total coverage for each gene in each replicate was then multiplied by these factors after adding an offset of 1 to each gene to preclude division by 0 in subsequent calculations. The averages and p values of the coverage values for all genes in the individual groups were calculated using Microsoft Excel, using a two‐tailed t‐test. The expression values for each gene are the normalized strand‐specific total nucleotide coverage for each gene. The complete data set can be accessed at https://figshare.com/s/54c7f78b4523873e9b00.

[1] = AA-injured, 100 mg/kg/day s.c. minipump
[2] = AA-injured, 100 mg/kg/day s.c. minipump, relative to uninjured, 100 mg/kg/day
[3] = AA-injured, 100 mg/kg/day s.c. minipump, relative to uninjured, listed as CWHM−12, 100 mg/kg/day

CC(C)(C)c1cc(Br)cc([C@H](CC(=O)O)NC(=O)CNC(=O)c2cc(O)cc(NC3=NCC(O)CN3)c2)c1 (stereo partly shown) [CWHM‐12]
Acta2 RNA‐seq ratio AA + CWHM-12/AA + Vehicle [1]: 0.8473
Aldh1a2 RNA‐seq ratio AA + CWHM-12/AA + Vehicle [1]: 0.6492
Col1a1 RNA‐seq ratio AA + CWHM-12/AA + Vehicle [1]: 0.2480
Col3a1 RNA‐seq ratio AA + CWHM-12/AA + Vehicle [1]: 0.3560
Col5a3 RNA‐seq ratio AA + CWHM-12/AA + Vehicle [1]: 0.5587
Crlf1 RNA‐seq ratio AA + CWHM-12/AA + Vehicle [1]: 0.1032
Ctgf RNA‐seq ratio AA + CWHM-12/AA + Vehicle [1]: 0.5510
Egf expression increase in injured animals, RNA-seq [1]: twofold
Fbln2 RNA‐seq ratio AA + CWHM-12/AA + Vehicle [1]: 0.5262
Fn1 RNA‐seq ratio AA + CWHM-12/AA + Vehicle [1]: 0.5243
Foxd1 RNA‐seq ratio AA + CWHM-12/AA + Vehicle [1]: 0.3427
Gda RNA‐seq ratio AA + CWHM-12/AA + Vehicle [1]: 0.6302
Gli1 RNA‐seq ratio AA + CWHM-12/AA + Vehicle [1]: 0.4486
Gli2 RNA‐seq ratio AA + CWHM-12/AA + Vehicle [1]: 0.8986
Gli3 RNA‐seq ratio AA + CWHM-12/AA + Vehicle [1]: 0.6039
Mmp2 RNA‐seq ratio AA + CWHM-12/AA + Vehicle [1]: 0.4013
NGAL (Lcn2) expression decrease vs vehicle-treated injured mice, RNA-seq [1]: 50%
Nes RNA‐seq ratio AA + CWHM-12/AA + Vehicle [1]: 0.4461
Pdgfra RNA‐seq ratio AA + CWHM-12/AA + Vehicle [1]: 0.7298
Pdgfrb RNA‐seq ratio AA + CWHM-12/AA + Vehicle [1]: 0.4393
Rgs16 RNA‐seq ratio AA + CWHM-12/AA + Vehicle [1]: 0.4692
Shroom3 RNA‐seq ratio AA + CWHM-12/AA + Vehicle [1]: 0.5633
Tgfb1 RNA‐seq ratio AA + CWHM-12/AA + Vehicle [1]: 0.5715
Tgfb2 RNA‐seq ratio AA + CWHM-12/AA + Vehicle [1]: 0.8306
Tgfb3 RNA‐seq ratio AA + CWHM-12/AA + Vehicle [1]: 0.5937
Thbs2 RNA‐seq ratio AA + CWHM-12/AA + Vehicle [1]: 0.5603
Thbs4 RNA‐seq ratio AA + CWHM-12/AA + Vehicle [1]: 0.4558
reduction of Myc expression, RNA-seq [1]: 35%
reduction of upregulation of eight keratin genes (Krt 7, 8, 15, 18–20, 23, 80), RNA-seq [1]: 15%–50%
decrease of Sox9 induction, RNA-seq (AA-injured, 100 mg/kg/day s.c. minipump, induction 45-fold with vehicle): 57%
Fold change of Gli2 by RNA‐seq, AA + CWHM-12 (AA-injured, 100 mg/kg/day s.c. minipump, relative to uninjured, vehicle 0.87): 0.78 fold
Fold change of Acta2 by RNA‐seq, AA + CWHM-12 (AA-injured, 100 mg/kg/day s.c. minipump, relative to uninjured, vehicle 3.7): 3.2 fold
Fold change of Shroom3 by RNA‐seq, AA + CWHM-12 (AA-injured, 100 mg/kg/day s.c. minipump, relative to uninjured, vehicle 3.9): 2.2 fold
Fold change of Tgfb2 by RNA‐seq, AA + CWHM-12 (AA-injured, 100 mg/kg/day s.c. minipump, relative to uninjured, vehicle 4.9): 4.1 fold
Fold change of Pdgfra by RNA‐seq, AA + CWHM-12 [2]: 3.7 fold
Fold change of Pdgfra by RNA‐seq, AA + CWHM-12 [3]: 3.66 fold
Fold change of Fbln2 by RNA‐seq, AA + CWHM-12 (AA-injured, 100 mg/kg/day s.c. minipump, relative to uninjured, vehicle 5.78): 3.04 fold
Fold change of Col5a3 by RNA‐seq, AA + CWHM-12 (AA-injured, 100 mg/kg/day s.c. minipump, relative to uninjured, vehicle 5.81): 3.25 fold
Fold change of Ctgf by RNA‐seq, AA + CWHM-12 (AA-injured, 100 mg/kg/day s.c. minipump, relative to uninjured, vehicle 6.4): 3.5 fold
Fold change of Pdgfrb by RNA‐seq, AA + CWHM-12 [2]: 3.0 fold
Fold change of Pdgfrb by RNA‐seq, AA + CWHM-12 [3]: 2.98 fold
Fold change of Tgfb1 by RNA‐seq, AA + CWHM-12 (AA-injured, 100 mg/kg/day s.c. minipump, relative to uninjured, vehicle 7.4): 4.2 fold
Fold change of Thbs2 by RNA‐seq, AA + CWHM-12 (AA-injured, 100 mg/kg/day s.c. minipump, relative to uninjured, vehicle 7.78): 4.36 fold
Fold change of Gda by RNA‐seq, AA + CWHM-12 (AA-injured, 100 mg/kg/day s.c. minipump, relative to uninjured, vehicle 8.17): 5.15 fold
Fold change of Tgfb3 by RNA‐seq, AA + CWHM-12 (AA-injured, 100 mg/kg/day s.c. minipump, relative to uninjured, vehicle 8.3): 4.9 fold
Fold change of Thbs4 by RNA‐seq, AA + CWHM-12 (AA-injured, 100 mg/kg/day s.c. minipump, relative to uninjured, vehicle 8.72): 3.97 fold
Fold change of Nes by RNA‐seq, AA + CWHM-12 (AA-injured, 100 mg/kg/day s.c. minipump, relative to uninjured, vehicle 8.77): 3.91 fold
Fold change of Foxd1 by RNA‐seq, AA + CWHM-12 [2]: 3.3 fold
Fold change of Foxd1 by RNA‐seq, AA + CWHM-12 [3]: 3.27 fold
Fold change of Fn1 by RNA‐seq, AA + CWHM-12 (AA-injured, 100 mg/kg/day s.c. minipump, relative to uninjured, vehicle 12.6): 6.6 fold
Fold change of Gli1 by RNA‐seq, AA + CWHM-12 [2]: 9.2 fold
Fold change of Gli1 by RNA‐seq, AA + CWHM-12 [3]: 9.17 fold
Fold change of Mmp2 by RNA‐seq, AA + CWHM-12 (AA-injured, 100 mg/kg/day s.c. minipump, relative to uninjured, vehicle 24.6): 9.9 fold
Fold change of Gli3 by RNA‐seq, AA + CWHM-12 (AA-injured, 100 mg/kg/day s.c. minipump, relative to uninjured, vehicle 24.87): 15.02 fold
Fold change of Col3a1 by RNA‐seq, AA + CWHM-12 (AA-injured, 100 mg/kg/day s.c. minipump, relative to uninjured, vehicle 28.0): 10.0 fold
Fold change of Aldh1a2 by RNA‐seq, AA + CWHM-12 (AA-injured, 100 mg/kg/day s.c. minipump, relative to uninjured, vehicle 32.44): 21.06 fold
Fold change of Crlf1 by RNA‐seq, AA + CWHM-12 [2]: 3.9 fold
Fold change of Crlf1 by RNA‐seq, AA + CWHM-12 [3]: 3.88 fold
Fold change of Col1a1 by RNA‐seq, AA + CWHM-12 (AA-injured, 100 mg/kg/day s.c. minipump, relative to uninjured, vehicle 42.1): 10.4 fold
Fold change of Rgs16 by RNA‐seq, AA + CWHM-12 (AA-injured, 100 mg/kg/day s.c. minipump, relative to uninjured, vehicle 55.80): 26.19 fold
Cdk1 expression level, fold higher, RNA-seq (AA-injured, 100 mg/kg/day s.c. minipump, vehicle 12-fold): 1.9 fold
Ccnb1 expression level, fold higher, RNA-seq (AA-injured, 100 mg/kg/day s.c. minipump, vehicle 23-fold): 1.4 fold
0610005C13Rik RNA-seq normalized coverage, AA CWHM12.AVE (AA-injured, group average): 114105
0610007N19Rik RNA-seq normalized coverage, AA CWHM12.AVE (AA-injured, group average): 54308
0610007P14Rik RNA-seq normalized coverage, AA CWHM12.AVE (AA-injured, group average): 56128
0610008F07Rik RNA-seq normalized coverage, AA CWHM12.AVE (AA-injured, group average): 5309
0610009B14Rik RNA-seq normalized coverage, AA CWHM12.AVE (AA-injured, group average): 1314
0610005C13Rik RNA-seq normalized coverage, AA CWHM12 individual replicates (AA-injured, replicates 1-3): 95741 and 94900 and 151673
0610007N19Rik RNA-seq normalized coverage, AA CWHM12 individual replicates (AA-injured, replicates 1-3): 42985 and 46254 and 73685
0610007P14Rik RNA-seq normalized coverage, AA CWHM12 individual replicates (AA-injured, replicates 1-3): 42349 and 51087 and 74947
0610008F07Rik RNA-seq normalized coverage, AA CWHM12 individual replicates (AA-injured, replicates 1-3): 4229 and 2946 and 8751
0610009B14Rik RNA-seq normalized coverage, AA CWHM12 individual replicates (AA-injured, replicates 1-3): 1407 and 899 and 1635
0610005C13Rik AA CWHM12/AA Vehicle.RATIO (RNA-seq): 2.041
0610005C13Rik AA CWHM12/PBS Vehicle.RATIO (RNA-seq): 0.462
0610007N19Rik AA CWHM12/AA Vehicle.RATIO (RNA-seq): 1.380
0610007N19Rik AA CWHM12/PBS Vehicle.RATIO (RNA-seq): 1.337
0610007P14Rik AA CWHM12/AA Vehicle.RATIO (RNA-seq): 1.629
0610007P14Rik AA CWHM12/PBS Vehicle.RATIO (RNA-seq): 1.142
0610008F07Rik AA CWHM12/AA Vehicle.RATIO (RNA-seq): 4.723
0610008F07Rik AA CWHM12/PBS Vehicle.RATIO (RNA-seq): 0.373
0610009B14Rik AA CWHM12/AA Vehicle.RATIO (RNA-seq): 1.572
0610009B14Rik AA CWHM12/PBS Vehicle.RATIO (RNA-seq): 1.915
